Data reported in US20090192147A1, “[a]-FUSED INDOLE COMPOUNDS, THEIR USE AS mTOR KINASE AND PI3 KINASE INHIBITORS, AND THEIR [sequence]” (Wyeth, priority 2008, published 2009).
Read-outs that look alike come from different tables or passages of the source.

Assays:
[1] = system: acute lymphoblastic leukemia; details: NOS/SCID mouse; cited from earlier work
mTOR enzymes = mTOR enzymes (Homo sapiens, UniProt P42345); details: read-out: mTOR enzymes IC50; literature value; cited from earlier work
[2] = system: human tumor xenograft models; details: cited from earlier work
[3] = system: OVCAR3 ovarian tumor cell line; experiment: In vitro cell culture growth assay (MTS); assay type: cell-based; details: Homo sapiens, OVCAR-3, 72 h, growth inhibition, three days after drug treatment
Procedure: (§1) Cell lines used were human adenocarcinoma (LoVo), pancreatic […], prostate (LNCap), breast (MDA468, MCF7), colon (HCT116), renal (HTB44 A498), and ovarian (OVCAR3) tumor cell lines. The tumor cells were plated in 96-well culture plates at approximately 3000 cells per well. One day following plating, various concentrations of PI3K inhibitors in DMSO were added to cells (final DMSO concentration in cell assays was 0.25%). Three days after drug treatment, viable cell densities were determined by cell mediated metabolic conversion of the dye MTS, a well-established indicator of cell proliferation in vitro. Cell growth assays were performed using kits purchased from Promega Corporation (Madison, Wis.), following the protocol provided by the vendor. Measuring absorbance at 490 nm generated the MTS assay results. Compound effect on cell proliferation was assessed relative to untreated control cell growth.

PC3-MM2 cells = experiment: In vitro cell culture growth assay (MTS); assay type: cell-based; details: Homo sapiens, PC3MM2, 72 h, growth inhibition, three days after drug treatment
Procedure: as §1

PI3K-alpha = PI3K-alpha (Homo sapiens, UniProt P42336); experiment: Fluorescence polarization assay for PI3K; assay type: biochemical; details: 25 μM ATP, diC8-PI(4,5)P2 substrate; read-out: PI3 Kinase α IC50
Chain of PI3K-alpha (P42336 whole entry, species assumed): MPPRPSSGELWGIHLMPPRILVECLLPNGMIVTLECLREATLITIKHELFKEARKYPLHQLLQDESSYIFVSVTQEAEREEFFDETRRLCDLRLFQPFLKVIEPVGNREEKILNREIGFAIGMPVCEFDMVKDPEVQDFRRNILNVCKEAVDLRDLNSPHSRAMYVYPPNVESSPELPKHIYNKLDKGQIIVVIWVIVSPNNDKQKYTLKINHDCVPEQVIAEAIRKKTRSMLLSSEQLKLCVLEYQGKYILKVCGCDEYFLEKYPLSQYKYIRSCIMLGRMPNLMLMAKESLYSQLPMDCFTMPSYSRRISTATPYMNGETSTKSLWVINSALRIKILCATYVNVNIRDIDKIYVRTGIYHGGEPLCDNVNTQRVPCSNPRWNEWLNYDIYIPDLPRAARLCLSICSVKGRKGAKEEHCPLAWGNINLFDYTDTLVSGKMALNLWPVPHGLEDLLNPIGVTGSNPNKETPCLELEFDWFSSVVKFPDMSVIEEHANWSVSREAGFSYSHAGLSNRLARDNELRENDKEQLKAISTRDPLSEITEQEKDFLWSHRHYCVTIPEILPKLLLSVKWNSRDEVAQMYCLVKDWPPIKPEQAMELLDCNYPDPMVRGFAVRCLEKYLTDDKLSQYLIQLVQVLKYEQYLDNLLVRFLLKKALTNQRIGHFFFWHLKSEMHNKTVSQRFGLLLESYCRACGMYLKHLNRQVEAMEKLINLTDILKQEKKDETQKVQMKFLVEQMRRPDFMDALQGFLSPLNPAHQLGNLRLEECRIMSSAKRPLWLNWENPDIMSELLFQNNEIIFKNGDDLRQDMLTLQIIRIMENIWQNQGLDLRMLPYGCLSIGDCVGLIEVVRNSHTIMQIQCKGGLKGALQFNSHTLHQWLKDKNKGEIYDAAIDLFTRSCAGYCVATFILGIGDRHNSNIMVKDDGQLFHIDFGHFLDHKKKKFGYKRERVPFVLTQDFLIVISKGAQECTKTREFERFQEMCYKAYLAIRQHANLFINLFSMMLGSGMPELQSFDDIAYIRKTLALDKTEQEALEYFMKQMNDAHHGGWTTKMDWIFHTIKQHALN
Chain of PI3K-alpha (P27986 whole entry partner, species assumed): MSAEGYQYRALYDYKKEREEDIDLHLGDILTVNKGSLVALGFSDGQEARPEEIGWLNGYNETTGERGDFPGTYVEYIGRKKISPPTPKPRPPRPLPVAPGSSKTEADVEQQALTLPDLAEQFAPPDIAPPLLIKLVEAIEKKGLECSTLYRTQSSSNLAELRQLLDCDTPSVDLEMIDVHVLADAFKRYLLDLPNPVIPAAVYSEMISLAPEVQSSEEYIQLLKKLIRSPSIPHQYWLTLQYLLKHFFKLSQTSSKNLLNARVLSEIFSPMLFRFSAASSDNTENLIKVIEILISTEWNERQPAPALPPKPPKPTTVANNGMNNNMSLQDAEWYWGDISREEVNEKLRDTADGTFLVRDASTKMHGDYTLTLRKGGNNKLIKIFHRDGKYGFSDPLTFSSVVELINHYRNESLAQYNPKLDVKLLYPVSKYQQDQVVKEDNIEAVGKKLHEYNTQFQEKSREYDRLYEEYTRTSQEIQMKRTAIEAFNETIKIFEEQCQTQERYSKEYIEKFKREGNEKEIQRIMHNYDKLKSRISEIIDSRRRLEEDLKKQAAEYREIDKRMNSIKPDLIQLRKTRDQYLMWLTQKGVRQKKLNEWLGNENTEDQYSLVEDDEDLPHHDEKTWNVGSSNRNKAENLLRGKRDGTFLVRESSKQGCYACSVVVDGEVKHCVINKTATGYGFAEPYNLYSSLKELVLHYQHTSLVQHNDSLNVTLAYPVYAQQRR
Procedure: (§2) Fluorescence Polarization Assay for PI3K
(§3) Reaction Buffer: 20 mM HEPES, pH 7.5, 2 mM MgCl2, 0.05% CHAPS; and 0.01% BME (added fresh) Stop/Detection Buffer: 100 mM HEPES, pH 7.5, 4 mM EDTA, 0.05% CHAPS; ATP 20 mM in water; PIP2 (diC8, Echelon, Salt Lake City Utah, cat# P-4508) 1 mM in water (MW=856.5); GST-GRP 1.75 mg/mL or 1.4 mg/mL in 10% glycerol; Red detector (TAMRA) 2.5 μM; Plate: Nunc 384 well black polypropylene fluorescence plate.
(§4) PI3-Kinase reactions were performed in […], pH 7, […], and 25 μM ATP, with diC8-PI(4,5)P2 (Echelon, Salt Lake City Utah) as substrate. Nunc 384 well black polypropylene fluorescent plates were used for PI3K assays. Reactions were quenched by the addition of EDTA to a final concentration of […]. Final reaction volumes were 10 μl. For evaluation of PI3K inhibitors, 5 ng of enzyme (PI3K-alpha, beta, gamma, or delta) and 2.5 μM of substrate was used per […] reaction volume, and inhibitor concentrations ranged from 100 pM to 20 μM; the final level of DMSO in reactions never exceeded 2%. Reactions were allowed to proceed for one hour at 25° C. After 1 hour, GST-tagged GRP1 (general receptor for phosphoinositides) PH domain fusion protein was added to a final concentration of 100 nM, and BODIPY-TMRI(1,3,4,5)P4 (Echelon) was also added to a final concentration of 5 nM. Final sample volumes were 25 μl with a final DMSO concentration of 0.8%. Assay Plates were read on PerkinElmer Envision plate readers with appropriate filters for Tamra [BODIPY-TMRI(1,3,4,5)P4]. Data obtained were used to calculate enzymatic activity and enzyme inhibition by inhibitor compounds.

PI3K-gamma = PI3K-gamma (Homo sapiens, UniProt P48736); experiment: Fluorescence polarization assay for PI3K; assay type: biochemical; details: 25 μM ATP, diC8-PI(4,5)P2 substrate; read-out: PI3 Kinase γ IC50
Chain of PI3K-gamma (P48736 whole entry): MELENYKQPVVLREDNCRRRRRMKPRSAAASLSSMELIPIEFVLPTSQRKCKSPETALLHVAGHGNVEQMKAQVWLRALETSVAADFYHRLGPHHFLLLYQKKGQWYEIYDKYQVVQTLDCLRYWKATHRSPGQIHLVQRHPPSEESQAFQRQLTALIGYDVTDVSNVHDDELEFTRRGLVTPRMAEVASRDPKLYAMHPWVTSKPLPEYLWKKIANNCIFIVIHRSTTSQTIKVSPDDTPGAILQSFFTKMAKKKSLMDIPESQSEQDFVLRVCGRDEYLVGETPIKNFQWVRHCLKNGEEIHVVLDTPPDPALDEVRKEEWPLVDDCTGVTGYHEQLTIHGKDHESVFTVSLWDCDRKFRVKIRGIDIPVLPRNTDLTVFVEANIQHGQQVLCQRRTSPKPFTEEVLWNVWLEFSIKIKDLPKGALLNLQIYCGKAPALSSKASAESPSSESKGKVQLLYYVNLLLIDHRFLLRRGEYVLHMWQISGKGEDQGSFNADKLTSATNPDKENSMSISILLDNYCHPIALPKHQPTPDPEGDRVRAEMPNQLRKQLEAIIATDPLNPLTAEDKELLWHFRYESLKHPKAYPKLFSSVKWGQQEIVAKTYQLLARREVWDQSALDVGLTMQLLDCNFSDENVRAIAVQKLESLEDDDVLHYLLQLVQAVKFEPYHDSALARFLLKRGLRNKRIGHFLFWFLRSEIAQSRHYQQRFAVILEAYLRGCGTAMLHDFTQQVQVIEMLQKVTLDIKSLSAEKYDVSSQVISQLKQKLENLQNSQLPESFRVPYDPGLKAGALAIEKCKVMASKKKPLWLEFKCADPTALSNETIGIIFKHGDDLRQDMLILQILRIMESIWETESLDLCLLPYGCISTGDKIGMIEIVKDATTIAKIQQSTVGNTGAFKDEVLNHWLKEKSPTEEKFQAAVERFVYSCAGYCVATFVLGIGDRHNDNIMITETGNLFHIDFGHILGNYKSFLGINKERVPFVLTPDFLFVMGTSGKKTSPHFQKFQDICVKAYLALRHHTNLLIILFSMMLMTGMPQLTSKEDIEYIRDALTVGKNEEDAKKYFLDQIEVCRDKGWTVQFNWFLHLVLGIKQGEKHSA
Procedure: as §2, §3, §4

human TOR (FLAG-TOR) = target: T1, human TOR (FLAG-TOR) (Homo sapiens, UniProt P42345); experiment: mTOR kinase assay, purified enzyme, DELFIA format; assay type: biochemical; details: 100 μM ATP, His6-S6K substrate
T1 construct: FLAG

| Structure (SMILES) | IC50 [3] | IC50 (PC3-MM2 cells) | IC50 (PI3K-alpha) | IC50 (PI3K-gamma) | IC50 (human TOR (FLAG-TOR)) | activity in xenograft mouse model of acute lymphoblastic leukemia [1] | IC50 (mTOR enzymes) | tumor growth in mouse human xenograft cancer models ([2]; chronic oral administration, 400 mg/kg, A549, PC-3, WiDr) | activity in human tumor xenograft models ([2]; prostrate (PC-3) and glioblastoma (U-87)) | activity in human tumor xenograft models ([2]; I.P. dosing in mice, U87MG, PC3, MDA-MB-468, MDA-MB-435, HCT 116, SKOV3, IGROV-1) |
| --- | --- | --- | --- | --- | --- | --- | --- | --- | --- | --- |
| CO[C@H]1C[C@@H]2CC[C@@H](C)[C@@](O)(O2)C(=O)C(=O)N2CCCC[C@H]2C(=O)O[C@H]([C@H](C)C[C@@H]2CC[C@@H](OC(=O)C(C)(CO)CO)[C@H](OC)C2)CC(=O)[C@H](C)/C=C(\C)[C@@H](O)[C@@H](OC)C(=O)[C@H](C)C[C@H](C)/C=C/C=C/C=C/1C [Torisel] |  |  |  |  |  | active |  |  |  |  |
| FC(F)c1nc2ccccc2n1-c1nc(N2CCOCC2)nc(N2CCOCC2)n1 [ZSTK474, 2-(2-difluoromethylbenzoimidazol-1-yl)-4,6-dimorpholino-1,3,5-triazine] |  |  |  |  |  |  | > 10 µM | completely inhibited growth |  |  |
| COc1ccc2c(c1)c(/C=C1\Oc3cc(O)cc(O)c3C1=O)c1n2CCOC1=O [Example I, 10-[(Z)-(4,6-dihydroxy-3-oxo-1-benzofuran-2(3H)-ylidene)methyl]-8-methoxy-3,4-dihydro-1H-[1,4]oxazino[4,3-a]indol-1-one] |  | 5630 nM | 1.1 nM | 9 nM | 24 nM |  |  |  |  |  |
| COc1ccc2c(c1)c(/C=C1\Oc3cc(O)cc(O)c3C1=O)c1n2CCN(C)C1 [P, (2Z)-4,6-dihydroxy-2-[(8-methoxy-2-methyl-1,2,3,4-tetrahydropyrazino[1,2-a]indol-10-yl)methylene]-1-benzofuran-3(2H)-one] | 1670 nM | 1610 nM | 6 nM | 30.5 nM | 9 nM |  |  |  |  |  |
| COc1ccc2c(c1)c(/C=C1\Oc3cc(O)ccc3C1=O)c1n2CCNC1 [L, (2Z)-6-hydroxy-2-[(8-methoxy-1,2,3,4-tetrahydropyrazino[1,2-a]indol-10-yl)methylene]-1-benzofuran-3(2H)-one] | 780 nM | 1510 nM | 16.5 nM | 116 nM | 320 nM |  |  |  |  |  |
| Cn1c(=O)n(-c2ccc(C(C)(C)C#N)cc2)c2c3cc(-c4cnc5ccccc5c4)ccc3ncc21 [NVP-BEZ-235, 2-methyl-2-(4-(3-methyl-2-oxo-8-(quinolin-3-yl)-2,3-dihydro-1H-imidazo[4,5-c]quinolin-1-yl)phenyl)propanenitrile] |  |  |  |  |  |  |  |  | demonstrated activity |  |
| COc1ccc2c(c1)c(/C=C1\Oc3cc(O)cc(O)c3C1=O)c1n2CCNC1 [K, (2Z)-4,6-dihydroxy-2-[(8-methoxy-1,2,3,4-tetrahydropyrazino[1,2-a]indol-10-yl)methylene]-1-benzofuran-3(2H)-one] | 1620 nM | 2190 nM | 5.5 nM | 116 nM | 9 nM |  |  |  |  |  |
| COc1ccc2c(c1)c(/C=C1\Oc3cc(O)cc(O)c3C1=O)c1n2CCOC1 [M, (2Z)-4,6-dihydroxy-2-[(8-methoxy-3,4-dihydro-1H-[1,4]oxazino[4,3-a]indol-10-yl)methylene]-1-benzofuran-3(2H)-one] | 1000 nM | 1910 nM | 4.5 nM | 57 nM | < 32 nM |  |  |  |  |  |
| Oc1cccc(-c2nc(N3CCOCC3)c3oc4ncccc4c3n2)c1 [Example P1103, 3-(4-(4-morpholinyl)pyrido[3′,2′:4,5]furo[3,2-d]pyrimidin-2-yl)phenol] |  |  |  |  |  |  |  |  |  | demonstrated activity |

Further lines, with some results ahead:

| IC50 [3] | IC50 (PC3-MM2 cells) | IC50 (PI3K-alpha) | IC50 (PI3K-gamma) | IC50 (human TOR (FLAG-TOR)) | Structure (SMILES) | activity in xenograft mouse model of acute lymphoblastic leukemia [1] | IC50 (mTOR enzymes) | tumor growth in mouse human xenograft cancer models ([2]; chronic oral administration, 400 mg/kg, A549, PC-3, WiDr) | activity in human tumor xenograft models ([2]; prostrate (PC-3) and glioblastoma (U-87)) | activity in human tumor xenograft models ([2]; I.P. dosing in mice, U87MG, PC3, MDA-MB-468, MDA-MB-435, HCT 116, SKOV3, IGROV-1) |
| --- | --- | --- | --- | --- | --- | --- | --- | --- | --- | --- |
| 3720 nM | 3400 nM | 14 nM | 76 nM | 66 nM | COc1ccc2c(c1)c(/C=C1\Oc3cc(O)ccc3C1=O)c1n2CCC1 [O, (2Z)-6-hydroxy-2-[(7-methoxy-2,3-dihydro-1H-pyrrolo[1,2-a]indol-9-yl)methylene]-1-benzofuran-3(2H)-one] |  |  |  |  |  |
| 5280 nM | > 10000 nM | 21.5 nM | 76.5 nM | 114 nM | COc1ccc2c(c1)c(/C=C1\Oc3cc(O)ccc3C1=O)c1n2CCOC1=O [J, 10-[(Z)-(6-hydroxy-3-oxo-1-benzofuran-2(3H)-ylidene)methyl]-8-methoxy-3,4-dihydro-1H-[1,4]oxazino[4,3-a]indol-1-one] |  |  |  |  |  |
| 4950 nM | > 10000 nM | 2.5 nM | 24.5 nM | < 32 nM | COc1ccc2c(c1)c(/C=C1\Oc3cc(O)cc(O)c3C1=O)c1n2CCNC1=O [N, 10-[(Z)-(4,6-dihydroxy-3-oxo-1-benzofuran-2(3H)-ylidene)methyl]-8-methoxy-3,4-dihydropyrazino[1,2-a]indol-1(2H)-one] |  |  |  |  |  |
| 3600 nM | 5050 nM | 3 nM | 27 nM | 4 nM | COc1ccc2c(c1)c(/C=C1\Oc3cc(O)cc(O)c3C1=O)c1n2CCN(C)C1=O [Q, 10-[(Z)-(4,6-dihydroxy-3-oxo-1-benzofuran-2(3H)-ylidene)methyl]-8-methoxy-2-methyl-3,4-dihydropyrazino[1,2-a]indol-1(2H)-one] |  |  |  |  |  |
